Measurements reported in ChEMBL document CHEMBL1133967, “New leads for selective inhibitors of alpha-L-fucosidases. Synthesis and glycosidase inhibitory activities of [(2R,3S,4R)-3,4-dihydroxypyrrolidin-2-yl]furan derivatives” (Bioorg Med Chem Lett, 2001).
Calls of active or inactive are those of the source. The calls are words filed in the database; no cut-off is given here.

How the values were obtained:
[1] = Inhibitory concentration against Alpha-mannosidase of Jack bean; design: species or system Canavalia ensiformis
[2] = tested on: Canavalia ensiformis; assay: Percent inhibition against Alpha-mannosidase of Jack bean at 1 mM
[3] = tested on: Prunus dulcis; assay: Percent inhibition against Alpha-mannosidase of Almonds at 1 mM
[4] = biological target: Glucoamylase (Aspergillus niger) (UniProt P69328); assay: Percent inhibition against Amyloglucosidase of Aspergillus niger at 1 mM
[5] = biological target: Beta-galactosidase (Bos taurus, UniProt Q58D55); assay: Inhibitory concentration against Beta-D-galactosidase of bovine liver
[6] = biological target: T1, Beta-galactosidase (Bos taurus) (UniProt Q58D55); assay: Percent inhibition against Beta-D-galactosidase of bovine liver at 1 mM
T1 sequence (whole entry): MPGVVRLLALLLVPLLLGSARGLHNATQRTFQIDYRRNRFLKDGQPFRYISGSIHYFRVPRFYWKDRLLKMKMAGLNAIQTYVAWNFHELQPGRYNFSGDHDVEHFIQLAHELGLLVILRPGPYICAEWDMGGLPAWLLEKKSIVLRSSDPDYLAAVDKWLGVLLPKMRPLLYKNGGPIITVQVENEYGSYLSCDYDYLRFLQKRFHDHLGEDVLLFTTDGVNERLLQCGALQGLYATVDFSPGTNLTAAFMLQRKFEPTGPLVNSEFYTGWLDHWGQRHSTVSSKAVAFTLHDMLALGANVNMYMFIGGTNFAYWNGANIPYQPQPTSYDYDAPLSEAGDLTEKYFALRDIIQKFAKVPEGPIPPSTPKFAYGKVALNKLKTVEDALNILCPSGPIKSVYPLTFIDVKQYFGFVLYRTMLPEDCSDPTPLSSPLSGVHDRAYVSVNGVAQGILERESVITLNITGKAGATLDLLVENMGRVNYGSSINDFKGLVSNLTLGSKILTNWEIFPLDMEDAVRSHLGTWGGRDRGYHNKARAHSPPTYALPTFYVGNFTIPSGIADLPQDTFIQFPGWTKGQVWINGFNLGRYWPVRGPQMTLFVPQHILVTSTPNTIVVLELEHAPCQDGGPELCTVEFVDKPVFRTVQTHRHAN

[7] = biological target: T2, Beta-galactosidase (Aspergillus niger) (UniProt P29853); assay: Inhibitory activity against Beta-D-galactosidase of Aspergillus niger at 1 mM; No inhibition
T2 sequence (whole entry): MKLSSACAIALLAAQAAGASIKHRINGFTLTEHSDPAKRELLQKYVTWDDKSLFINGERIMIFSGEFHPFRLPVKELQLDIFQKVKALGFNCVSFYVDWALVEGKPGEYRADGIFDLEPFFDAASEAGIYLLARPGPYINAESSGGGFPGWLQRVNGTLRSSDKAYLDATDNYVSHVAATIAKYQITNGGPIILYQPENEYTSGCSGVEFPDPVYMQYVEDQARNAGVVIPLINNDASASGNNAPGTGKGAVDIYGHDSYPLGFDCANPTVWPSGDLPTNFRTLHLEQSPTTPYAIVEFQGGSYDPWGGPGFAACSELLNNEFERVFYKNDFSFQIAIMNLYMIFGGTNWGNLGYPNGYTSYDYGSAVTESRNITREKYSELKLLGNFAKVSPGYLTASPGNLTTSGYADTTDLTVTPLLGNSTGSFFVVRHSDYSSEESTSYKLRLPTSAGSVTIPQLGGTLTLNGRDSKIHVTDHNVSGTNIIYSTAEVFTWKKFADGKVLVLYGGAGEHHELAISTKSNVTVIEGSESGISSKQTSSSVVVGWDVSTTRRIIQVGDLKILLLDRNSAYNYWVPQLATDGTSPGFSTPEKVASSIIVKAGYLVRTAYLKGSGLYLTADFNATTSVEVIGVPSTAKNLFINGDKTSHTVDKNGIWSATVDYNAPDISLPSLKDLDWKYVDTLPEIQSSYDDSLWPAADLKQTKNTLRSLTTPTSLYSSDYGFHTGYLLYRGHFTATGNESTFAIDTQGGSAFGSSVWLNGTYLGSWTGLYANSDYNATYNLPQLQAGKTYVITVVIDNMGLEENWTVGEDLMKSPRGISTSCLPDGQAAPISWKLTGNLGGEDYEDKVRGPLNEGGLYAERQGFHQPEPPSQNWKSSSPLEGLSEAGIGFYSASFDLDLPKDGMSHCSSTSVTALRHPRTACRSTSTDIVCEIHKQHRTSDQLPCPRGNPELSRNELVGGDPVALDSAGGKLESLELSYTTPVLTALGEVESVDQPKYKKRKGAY

[8] = biological target: Beta-galactosidase (Escherichia coli) (UniProt Q8VNN2); assay: Inhibitory activity against beta-D-Galactosidase of Escherichia coli at 1 mM; No inhibition
[9] = Inhibitory activity against Alpha-mannosidase of Jack bean expressed as Ki; design: species or system Canavalia ensiformis
[10] = biological target: T3, Tissue alpha-L-fucosidase (Homo sapiens, UniProt P04066); assay: Inhibitory concentration against alpha-L-Fucosidase of human placenta
T3 sequence (P04066 whole entry): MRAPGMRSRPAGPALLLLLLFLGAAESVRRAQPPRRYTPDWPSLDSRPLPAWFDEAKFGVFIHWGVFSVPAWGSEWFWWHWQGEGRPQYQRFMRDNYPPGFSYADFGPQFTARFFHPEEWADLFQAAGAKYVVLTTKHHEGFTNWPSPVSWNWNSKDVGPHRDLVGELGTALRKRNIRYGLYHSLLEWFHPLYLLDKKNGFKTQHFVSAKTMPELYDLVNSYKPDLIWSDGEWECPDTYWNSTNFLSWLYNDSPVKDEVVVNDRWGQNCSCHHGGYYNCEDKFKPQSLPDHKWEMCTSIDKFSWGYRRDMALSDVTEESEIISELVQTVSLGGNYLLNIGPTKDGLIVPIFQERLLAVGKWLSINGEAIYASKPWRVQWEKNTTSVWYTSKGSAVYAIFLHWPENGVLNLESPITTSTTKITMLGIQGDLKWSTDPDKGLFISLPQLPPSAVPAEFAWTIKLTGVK

[11] = biological target: T4, Tissue alpha-L-fucosidase (Homo sapiens) (UniProt P04066); assay: Percent inhibition against alpha-L-Fucosidase of human placenta at 1 mM
T4 sequence (whole entry): T3 sequence (P04066 whole entry)

[12] = biological target: T3, Tissue alpha-L-fucosidase; assay: Inhibitory activity against alpha-L-Fucosidase of human placenta expressed as Ki
[13] = biological target: Beta-galactosidase (Escherichia coli) (UniProt Q8VNN2); assay: Inhibitory activity against Beta-D-galactosidase of Escherichia coli at 1 mM; No inhibition
[14] = tested on: maltase (Oryza sativa); assay: Inhibitory activity against maltase of rice at 1 mM; No inhibition
[15] = tested on: maltase (Saccharomyces cerevisiae); assay: Inhibitory activity against maltase of yeast at 1 mM; No inhibition
[16] = tested on: Rhizopus; assay: Percent inhibition against Amyloglucosidase of Rhizopus mold at 1 mM
[17] = tested on: Coffea arabica; assay: Percent inhibition against Alpha-galactosidase of coffee bean at 1 mM
[18] = tested on: isomaltase (Saccharomyces cerevisiae); assay: Inhibitory activity against isomaltase of baker yeast at 1 mM; No inhibition
[19] = tested on: Prunus dulcis; assay: Inhibitory activity against Beta-glucosidase of almonds at 1 mM; No inhibition
[20] = tested on: Canavalia ensiformis; assay: Inhibitory activity against Beta-D-galactosidase of Jack bean at 1 mM; No inhibition
[21] = tested on: Helix pomatia; assay: Inhibitory activity against Beta-mannosidase of Helix pomatia at 1 mM; No inhibition
[22] = tested on: Escherichia coli; assay: Inhibitory activity against Alpha-galactosidase of Escherichia coli at 1 mM; No inhibition
[23] = tested on: Aspergillus niger; assay: Inhibitory activity against Alpha-galactosidase of Aspergillus niger at 1 mM; No inhibition
[24] = tested on: Beta-N-acetylglucosaminidase (Canavalia ensiformis); assay: Inhibitory activity against Beta-N-acetylglucosaminidase of Jack bean at 1 mM; No inhibition
[25] = tested on: Aspergillus oryzae; assay: Inhibitory activity against Beta-D-galactosidase of Aspergillus oryzae at 1 mM; No inhibition
[26] = tested on: Caldicellulosiruptor saccharolyticus; assay: Inhibitory activity against Beta-glucosidase of Caldocellum saccharolyticum at 1 mM; No inhibition
[27] = organism: Gallus gallus; assay: Inhibitory activity against alpha-N-acetylgalactosaminidase of chicken liver at 1 mM; No inhibition
[28] = tested on: Beta-N-acetylglucosaminidase (Bos taurus); assay: Inhibitory activity against Beta-N-acetylglucosaminidase of bovine epididymis A at 1 mM; No inhibition
[29] = tested on: Beta-N-acetylglucosaminidase (Bos taurus); assay: Inhibitory activity against Beta-N-acetylglucosaminidase of bovine epididymis B at 1 mM; No inhibition

Chain of Glucoamylase (Aspergillus niger) (P69328 whole entry): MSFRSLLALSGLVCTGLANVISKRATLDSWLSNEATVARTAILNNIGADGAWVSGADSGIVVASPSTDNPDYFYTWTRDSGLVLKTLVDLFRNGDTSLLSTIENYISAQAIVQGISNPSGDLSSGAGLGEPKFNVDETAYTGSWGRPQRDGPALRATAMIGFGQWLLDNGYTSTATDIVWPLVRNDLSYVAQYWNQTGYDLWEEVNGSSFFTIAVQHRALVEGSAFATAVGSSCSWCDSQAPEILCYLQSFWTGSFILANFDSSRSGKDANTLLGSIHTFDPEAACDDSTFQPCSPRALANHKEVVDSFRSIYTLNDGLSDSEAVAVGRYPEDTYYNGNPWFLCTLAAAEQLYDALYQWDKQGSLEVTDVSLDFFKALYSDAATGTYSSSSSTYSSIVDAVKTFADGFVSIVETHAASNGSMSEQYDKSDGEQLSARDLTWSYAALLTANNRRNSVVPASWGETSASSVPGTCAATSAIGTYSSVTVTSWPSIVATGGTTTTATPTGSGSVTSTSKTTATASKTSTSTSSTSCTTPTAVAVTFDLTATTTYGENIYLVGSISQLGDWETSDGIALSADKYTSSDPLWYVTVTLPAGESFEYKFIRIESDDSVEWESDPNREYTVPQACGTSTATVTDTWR
Chain of Beta-galactosidase (Escherichia coli) (Q8VNN2 whole entry, looked up): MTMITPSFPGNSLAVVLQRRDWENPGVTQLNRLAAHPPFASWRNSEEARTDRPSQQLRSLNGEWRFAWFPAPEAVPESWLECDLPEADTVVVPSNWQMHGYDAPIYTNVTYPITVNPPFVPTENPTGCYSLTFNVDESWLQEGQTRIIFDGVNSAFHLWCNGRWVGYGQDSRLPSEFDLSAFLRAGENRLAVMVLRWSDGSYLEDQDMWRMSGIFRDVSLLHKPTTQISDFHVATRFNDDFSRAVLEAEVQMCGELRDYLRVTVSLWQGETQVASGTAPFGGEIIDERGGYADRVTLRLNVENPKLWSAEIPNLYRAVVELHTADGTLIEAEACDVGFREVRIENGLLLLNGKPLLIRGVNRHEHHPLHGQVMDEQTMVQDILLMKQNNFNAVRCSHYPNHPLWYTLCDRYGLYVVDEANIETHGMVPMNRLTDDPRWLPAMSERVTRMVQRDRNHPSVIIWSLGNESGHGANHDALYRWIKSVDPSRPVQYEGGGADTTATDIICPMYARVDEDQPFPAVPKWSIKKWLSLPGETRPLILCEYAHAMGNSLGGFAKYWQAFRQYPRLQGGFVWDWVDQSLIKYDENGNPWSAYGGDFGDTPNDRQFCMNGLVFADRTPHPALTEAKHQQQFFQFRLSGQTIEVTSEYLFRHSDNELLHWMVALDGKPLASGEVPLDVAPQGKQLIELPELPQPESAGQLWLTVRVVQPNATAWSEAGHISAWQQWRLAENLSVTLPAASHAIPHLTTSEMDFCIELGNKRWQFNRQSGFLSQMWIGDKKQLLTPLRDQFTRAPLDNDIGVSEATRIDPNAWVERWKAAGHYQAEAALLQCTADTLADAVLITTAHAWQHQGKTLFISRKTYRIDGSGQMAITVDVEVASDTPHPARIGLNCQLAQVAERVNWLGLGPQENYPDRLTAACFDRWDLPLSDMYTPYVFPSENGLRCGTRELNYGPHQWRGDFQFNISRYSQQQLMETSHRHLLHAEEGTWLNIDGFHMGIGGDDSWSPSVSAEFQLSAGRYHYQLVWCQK

Cc1oc(C2NCC(O)C2O)cc1C(=O)OC(C)C (stereo not given)
IC50 [1]: 250 µM | inhibition [2]: 78% | inhibition [3]: 57% | inhibition [4]: 27% | IC50 [5]: 640 µM | inhibition [6]: 57% | inhibition [7]: inactive | inhibition [8]: inactive | Ki [9]: 85 µM

COC(=O)c1cc(C2NCC(O)C2O)oc1C (stereo not given)
IC50 [10]: 150 µM | inhibition [11]: 88% | Ki [12]: 13.8 µM | inhibition [2]: 23% | inhibition [3]: 36% | inhibition [4]: 23% | IC50 [5]: 800 µM | inhibition [6]: 54% | inhibition [7]: No inhibition | inhibition [13]: No inhibition | inhibition [14]: No inhibition | inhibition [15]: No inhibition | inhibition [16]: 33% | inhibition [17]: 42% | inhibition [18]: No inhibition | inhibition [19]: inactive | inhibition [20]: No inhibition | inhibition [21]: No inhibition | inhibition [22]: No inhibition | inhibition [23]: No inhibition | inhibition [24]: inactive | inhibition [25]: No inhibition | inhibition [26]: No inhibition | inhibition [27]: No inhibition | inhibition [28]: inactive | inhibition [29]: inactive
